Data from PubChem BioAssay AID179 (DTP/NCI, 2004).
pEC50, pIC50: −log10 of the molar value. Calls of active or inactive are those of the source.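 How the source made its calls: active means compounds giving half or more protection of infected cells from virus-caused growth loss, again on retest; inactive means the rest.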 Where a SMILES comes first, the peptide text is derived from it. The star is where a group is joined. Boc = CC(C)(C)OC(=O)*; OBn = c1ccc(CO*)cc1

Tested on: CEM cells HIV-1 protection, formazan growth assay
Experiment: NCI AIDS Antiviral Assay
Settings: for pIC50: measured here: growth of uninfected CEM cells
How it was run: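 Category rules: moderately active means at least 50% protection on retest, and confirmed active means 100% protection reproducibly. The underlying data came from a formazan growth assay in HIV-1-infected CEM cells.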

SMILES | pEC50 | pIC50 | outcome
O=C(O)CCCO | < 3.70 | < 3.70 | 
CN(C)C(=O)CC(C(=O)O)c1c[nH]c2ccccc12 (stereo unspecified) | < 3.51 | < 3.51 | 
CC1=C(C(=O)NNS(=O)(=O)c2ccc(C)cc2)CC(C(=O)NNS(=O)(=O)c2ccc(C)cc2)=C(C)N1 | < 4.87 | < 4.87 | 
Cc1noc(C(F)(F)Sc2ncccn2)n1 | 3.76 | < 3.70 | 
CCOC(=O)C(=Cc1ccc(N(C)C)cc1)C(=O)OCC | < 4.05 | 4.33 | 
COC(=O)CC1C=CC(C)(OC)OO1 (stereo unspecified) | < 3.70 | 4.03 | 
CCC1C[N+]23CCc4c([nH]c5ccccc45)C2CC1CC3 (stereo unspecified) | < 4.24 | < 4.24 | 
COc1ccc(/C=C(\C#N)c2ccc(OC)c(OC)c2)cc1 | < 5.70 | 6.59 | 
CN1CCN(C(=S)N(C(=O)c2cccs2)c2ccccc2)CC1 | < 3.98 | < 3.98 | 
CC1(C)CNC[C@]2(C)OCCCO[C@@]3(C)CNCC(C)(C)NC(=O)[C@](C)(CNCC(C)(C)NC3=O)OCCCO[C@](C)(CNCC(C)(C)NC2=O)C(=O)N1 | < 3.70 | < 3.70 | 
CC(=O)Oc1ccc2cc(Oc3ccccc3)c(=O)oc2c1 | < 3.70 | 4.07 | 
O=C(O)c1cc2c(cc1CC(Cc1ccccc1)C(=O)O)CCC2 (stereo unspecified) |  |  | inactive
Cc1n[nH]c(=O)n1/N=C/c1cccnc1 |  |  | inactive
CN(C(=O)c1ccccc1S)c1ccccc1 | < 3.70 | 4.69 | 
NC(N)=N/N=C\c1ccc(C2CCNCC2)cc1 | < 3.70 | < 3.70 | 
CCOC(=O)/C=C/[C@@H](CC)O[Si](C(C)C)(C(C)C)C(C)C | < 3.70 | < 3.70 | 
COC(=O)C1N=CSCC1(C)O (stereo unspecified) | < 2.88 | 3.73 | 
COc1cc(C2c3cc4c(cc3OC3(OC)COC(=O)C23)OCO4)cc(OC)c1OC (stereo unspecified) | < 5.70 | 6.62 | 
O=C1c2ccccc2C2(c3ccc(F)cc3)NCCN12 (stereo unspecified) | < 3.70 | 3.73 | 
Cc1ccc(S(=O)(=O)N[C@H](C(=O)O)c2ccccc2)cc1 |  |  | inactive
COc1cc2c(cc1OC)[N+]1(C)CCC3OCCC4C[N+]5(C)CCC26C5CC4C3C61 (stereo unspecified) | < 3.43 | < 3.43 | 
COC1OC2COC(C)(C)OC2C2OC(C)(C)OC12 (stereo unspecified) | < 3.70 | 3.74 | 

SMILES | pEC50 | pIC50 | outcome
CS/C(c1ccccc1)=[N+](\[O-])Cc1ccccc1 | < 3.19 | 3.34 | 
COc1ccccc1C=NC12CC3CC(CC(C3)C1)C2 | < 3.88 | 3.96 | 
C=CCN1COc2c(cc3c4c(cccc24)C(=O)O3)C1 | < 4.57 | 5.37 | 
O=C(Nc1ccccc1-c1ccccc1)c1ccccc1 | < 3.70 | 4.04 | 
COC(=O)[C@H](Cc1c[nH]c2ccccc12)NP(=O)(OC)OCC1OC(n2cc(C)c(=O)[nH]c2=O)CC1N=[N+]=[N-] (stereo partly specified) | 4.16 | < 3.70 | 
Cc1cn(C2OC(CO)(C(F)(F)F)C(O)C2O)c(=O)[nH]c1=O (stereo unspecified) | < 3.70 | < 3.70 | 
CNS(=O)(=O)NNS(=O)(=O)c1ccc(Cl)cc1 | < 3.92 | < 3.92 | 
O=C1Cc2ccccc2N1/N=C\c1ccc([N+](=O)[O-])cc1 | < 4.17 | < 4.17 | 
CCCCCCCCCCCCCCCCCC(=O)NCC(COP(=O)([O-])OCC[N+](C)(C)C)OCC (stereo unspecified) |  |  | inactive
O=C1NC(=O)C(=Cc2ccc(Cl)cc2)C(=O)N1 | < 4.12 | < 4.12 | inactive
O=C(O)CN1CCNCCN(CP(=O)(O)O)CC1 | < 3.70 | 4.98 | 
CCOP(=O)(OCC)/C(C#N)=C/c1cccc(OC)c1 | < 3.64 | < 3.64 | 
O=C(Nc1ccc(Cl)cc1Cl)C(=O)C(C(=O)c1ccc2ccccc2c1)C1OC(=O)c2ccccc21 (stereo unspecified) | < 4.30 | 4.59 | 
CN1C(=NCCO)NS(=O)(=O)c2ccccc21 | < 3.01 | < 3.01 | 
CCN(CC)C(=O)C1=C(C)NC(C)=C(C(=O)N(CC)CC)C1 | < 3.70 | 4.21 | 
COc1cc(N)c2[nH]c3c(C)ccc(C)c3c2c1 | < 4.52 | < 4.52 | 
N#CS/C(C(Cl)=C(Cl)Cl)=C(/Cl)[N+](=O)[O-] | < 3.70 | 5.08 | 
O=C(NC(=O)c1ccccc1)NC(=O)c1ccccc1 | < 3.87 | < 3.87 | 
O=C1OC(C2OC(=O)c3cc(O)c(O)c(O)c3-c3c(O)c(O)c4oc(=O)c5c(c(O)c(O)c6oc(=O)c3c4c65)-c3c(cc(O)c(O)c3O)C(=O)OCC2O)C2OC(=O)c3c(c(O)c(O)c(O)c3C2O)-c2c1cc(O)c(O)c2O (stereo unspecified) | 5.79 | 4.92 | 
CN(C)CCSc1nc(-c2cccs2)c2ccccc2n1 | < 3.94 | 4.58 | 
CC(C)(C)[Si](C)(C)OC[C@@H](NC(=O)OCc1ccccc1)C(=O)O | < 3.70 | < 3.70 | 
O=C(COc1ccc(Cl)cc1)c1ccccc1 | < 3.00 | < 3.00 | 

SMILES | pEC50 | pIC50 | outcome
O=NNc1ccc(S(=O)c2ccccc2)cn1 (stereo unspecified) | < 3.70 | < 3.70 | 
COC(=O)C(Br)C1CCc2ccccc21 (stereo unspecified) | < 3.60 | 3.85 | 
Cc1nc2c(nc1C)C(=O)c1ccccc1C2=O | < 3.70 | 5.34 | 
Nc1nncc2[nH]cnc12 | < 3.70 | 5.00 | 
S=C(N/N=C(/c1ccccc1)c1ccccn1)Nc1cccc(Cl)c1 | < 6.70 | 7.05 | 
O=C(Cc1nc2ccc(C(=O)c3ccccc3)cc2[nH]c1=O)C(=O)Nc1nc2ccccc2[nH]1 |  |  | inactive
CC(C)(Oc1ccc(/C=C/C(=O)c2ccccc2)cc1)C(=O)Nc1c(Cl)cccc1Cl | < 5.08 | < 5.08 | 
CC(C)C(NC(=O)CNC(=O)C1CCCN1C(=O)C(NC(=O)OC(C)(C)C)C(C)C)C(=O)NCC(=O)OCc1ccccc1 (stereo unspecified) (Boc-VPGVG-OBn; configuration not given here) | < 3.70 | 3.93 | 
O=P(O)(O)C(N=C(Nc1ccccc1)Nc1ccccc1)P(=O)(O)O | < 4.00 | < 4.00 | 
CC1=C(C(=O)Nc2ccccc2)C(c2ccc(Cl)c(Cl)c2)C(C(=O)Nc2ccccc2)=C(C)N1 | < 4.97 | < 4.97 | 
OCC1OC(NC(=S)NCCC(F)(F)C(F)(F)C(F)(F)C(F)(F)C(F)(F)C(F)(F)F)C(O)C(O)C1O (stereo unspecified) | < 3.70 | 3.92 | 
O=C(O)C1CCC(c2ccc(Oc3ccccc3)cc2)N1 (stereo unspecified) | < 3.70 | < 3.70 | 
CCOC(=O)C(=O)Nc1ccccc1C | < 4.46 | < 4.46 | 
CC1(C)OCC2OC3([C@H]4OC(C)(C)O[C@@H]4CO)OC(C)(C)OC3C2O1 (stereo partly specified) | < 3.70 | < 3.70 | 
C/C=C/CSc1cc(NC(=S)c2ccsc2C)ccc1Cl | 6.58 | 4.91 | 
CCCCS(=N)(=O)CCC(N)P(=O)(O)O (stereo unspecified) | < 3.70 | < 3.70 | 
COc1ccc(C(OCC2OC3(COC(c4ccccc4)(c4ccc(OC)cc4)c4ccc(OC)cc4)C(Oc4nc(=O)ccn43)C2O)(c2ccccc2)c2ccc(OC)cc2)cc1 (stereo unspecified) | < 4.00 | < 4.00 | 
CC(CCC/C=C/CCCN(C)C(=N)N)CC(C)C1OC(=O)C(C)C(O)/C=C/C(C)C(O)C(C)C(O)C(C)C(O)CCCC(O)CC2(O)OC(CC(OC(=O)CC(=O)O)CC(O)CC(O)C(C)C(O)/C=C/C=C/C1C)CC(O)C2O (stereo unspecified) |  |  | inactive
CC(=O)OC1CC(OC(C)=O)[C@@]2(C)C[C@@H]3C(C)C(=O)O[C@H]3CC(C)C12 (stereo partly specified) | < 4.13 | 4.37 | 
CC1(C)CCC[C@]2(C)[C@H]3[C@H](C#N)c4cc(O)c(O)cc4O[C@@]3(C)CC[C@@H]12 | < 3.70 | 5.85 | 
O=C1OC(=O)C2C3CC(C4N=NN(c5ccccc5)C34)C12 (stereo unspecified) | < 3.70 | < 3.70 | 
CC(C)OP(=O)(OC(C)C)C([CH2][Sn]([CH3])([CH3])[Br])P(=O)(OC(C)C)OC(C)C | < 3.70 | 5.06 | 

SMILES | pEC50 | pIC50 | outcome
NCCn1c(-c2ccccc2)nc2ccccc2c1=O | < 3.70 | 3.91 | 
O=C1[C@@H]2C3SC(c4ccccc43)[C@@H]2C(=O)N1c1ccccc1 |  |  | inactive
CCOC(=O)C(NCc1ccc2c(c1)OCO2)(NC(=O)c1ccccc1)C(F)(F)F (stereo unspecified) | < 3.70 | 4.52 | 
C(=N/NC1=NCCN1)/c1c2ccccc2c(/C=N\NC2=NCCN2)c2ccccc12 | < 5.97 | 7.44 | 
O=C(CCCN1CCC2(CC1)C(=O)NCN2c1ccccc1)c1ccccc1 | < 3.70 | 4.46 | 
CCOc1ccc(C(C2=C(O)c3ccccc3C(=O)C2=O)C2=C(O)c3ccccc3C(=O)C2=O)cc1OC | < 3.70 | 4.53 | 
CC1(CC(O)(C(F)(F)F)C(F)(F)F)NC(=O)NC1=O (stereo unspecified) | < 3.70 | < 3.70 | 
CC(=O)Oc1cc(OC(C)=O)c2c(C)cc(=O)oc2c1 | < 3.70 | 3.83 | 
CC(C)(C)SSC(=S)C(c1ccccc1)c1ccccc1 | < 3.70 | 3.74 | 
O=C(/C=C/c1cccc([N+](=O)[O-])c1)c1ccccc1 | < 4.69 | 4.94 | 
CCOC(=O)c1cc(I)c(-c2cc(C)no2)n1C | < 3.70 | 4.43 | 
O=C(O)C1CC(C(=O)O)SS1 (stereo unspecified) | < 2.89 | < 2.89 | 
O=C1NC2(CCCC2)C2CCCCC12O (stereo unspecified) |  |  | inactive
COC(=O)c1c(C)cc(OC(=O)c2c(C)cc(O)c(/C=N\O)c2O)c(C)c1O | < 3.82 | 5.01 | 
Cc1nc(Nc2ccccc2)sc1C(=O)CC(=O)C(=O)NC12CC3CC(CC(C3)C1)C2 | < 4.09 | < 4.09 | 
N#Cc1c(=O)c2ccccc2n2c1[nH]c1ccccc12 | < 3.70 | 4.11 | 
O=C(Nc1ccc(/C=C/c2ccc(NC(=O)c3ccc4cccnc4c3O)cc2S(=O)(=O)O)c(S(=O)(=O)O)c1)c1ccc2cccnc2c1O | < 4.00 | 4.22 | 
O=S1(=O)c2ccccc2C(Nc2ccccc2)N1c1ccccc1 (stereo unspecified) | < 3.70 | 4.18 | 
COc1cc2c(c(Cl)c1OC)CCN(C)CC2c1ccccc1 (stereo unspecified) | < 3.70 | 4.15 | 
O=CCCCC(Sc1ccccc1)Sc1ccccc1 |  |  | inactive
CCCCCCCCCCCCCCCCCCn1[se]c2ccccc2c1=O | < 5.49 | < 5.49 | 
